Tests used:
Format in all cases: cell-based
[1] = system: pool of aerobic organisms (mixed pool of 6 bacterial species); experiment: Biocidal efficacy at room temperature, aerobic bacteria; settings: for minimum dose needed to achieve 3-log reduction in bacteria levels: aerobic bacteria, ppm glutaraldehyde equivalent, tested 200 to 12 ppm
Description: (§1) Assay for Biocidal Efficacy at Room Temperature: Glutaraldehyde and Compounds 1 and 4 are tested for biocidal activity against a pool of aerobic organisms at room temperature and against sulfate reducing bacteria (SRB) at room temperature. Tests are performed as follows:
(§2) a. Stock preparation. Glutaraldehyde (50% in water) and Compounds 1 and 4 are each dissolved in DMSO to a concentration of 200 mM, which is equivalent to 20,000 ppm of free glutaraldehyde.
(§3) b. Aerobic Bacteria—a mixed pool of 6 bacterial species at approximately 5×10^6 CFU/mL in phosphate buffered saline is distributed into a 96-well plate. Each well receives an independent chemical treatment of the tested compounds at concentrations ranging from 200 ppm to 12 ppm glutaraldehyde. A control treatment of DMSO alone is also included. Each condition is tested in triplicate. After set periods of incubation (1, 4, and 24 h), the number of surviving cells in each well are enumerated by dilution to extinction in a medium containing resazurin dye as an indicator. c. Sulfate Reducing Bacteria (SRB)—SRB testing is performed as for the aerobic bacteria with the following modifications: the species Desulfovibrio longus is tested in anaerobic PBS and the enumeration of surviving cells is performed in a medium containing soluble iron as an indicator. d. Results: Values indicate minimum the dose needed (in ppm) to achieve 3-log reduction in bacteria levels. “n/a” indicates the threshold is not met at any of the tested doses. “N.D.” indicates no data available.

[2] = system: sulfate reducing bacteria (SRB), Desulfovibrio longus; experiment: Biocidal efficacy at room temperature, sulfate reducing bacteria (SRB); settings: for minimum dose needed to achieve 3-log reduction in bacteria levels: SRB, anaerobic PBS, ppm glutaraldehyde equivalent, tested 200 to 12 ppm; for activity against SRB (in words): compared with glutaraldehyde
Description: as §1, §2, §3

[3] = system: Thermus thermophilus (ATCC 27634); experiment: Biocidal efficacy at elevated temperature; settings: for log kill of treated bacterial populations relative to an untreated control: 50 ppm glutaraldehyde equivalent
Description: Compound 1 is dissolved in DMSO to yield a 200 mM solution such that the glutaraldehyde-equivalent concentration of the stock solution is 20,000 ppm. The bacterial strain Thermus thermophilus (ATCC 27634) is maintained at 70° C. After 24-48 hours of growth, 10 mL of bacterial culture is harvested by spinning in a Beckman-Coulter benchtop centrifuge at 3000 rpm for 15 min. The cell pellet is resuspended in 100 mL of phosphate-buffered saline (PBS) to give approximately 5×10^5 CFU/mL and aliquoted into 10 mL portions in glass test tubes fitted with screw caps. Samples are equilibrated to 37, 55, or 70° C. for 30 min and then treated with glutaraldehyde or Compound 1 at 50 ppm glutaraldehyde equivalent. The treated samples are returned to their respective equilibration temperatures for 4 h and then enumerated for surviving bacteria. After 24 h, the process is repeated by adding fresh grown bacteria to the samples to re-challenge the biocide. The samples are again enumerated after 4 h. Results are reported in terms of log kill of treated bacterial populations relative to an untreated control at each temperature. For values listed as “>x,” actual kill may have been higher but could not be detected by this assay.

[4] = 37 C., 24 hr (re-challenge with fresh bacteria, enumerated after 4 h)
[5] = 55 C., 24 hr (re-challenge with fresh bacteria, enumerated after 4 h)
[6] = 70 C., 24 hr (re-challenge with fresh bacteria, enumerated after 4 h)

Compound | biocidal activity against aerobic bacteria (in words) [1] | minimum dose needed to achieve 3-log reduction in bacteria levels ([1]; 1 hour incubation) | minimum dose needed to achieve 3-log reduction in bacteria levels ([1]; 4 hours incubation) | minimum dose needed to achieve 3-log reduction in bacteria levels ([1]; 24 hours incubation) | minimum dose needed to achieve 3-log reduction in bacteria levels ([2]; 1 hour incubation) | minimum dose needed to achieve 3-log reduction in bacteria levels ([2]; 4 hours incubation) | activity against SRB (in words) [2] | log kill of treated bacterial populations relative to an untreated control ([3]; 37 C., 4 hr) | log kill of treated bacterial populations relative to an untreated control [3, 4] | log kill of treated bacterial populations relative to an untreated control ([3]; 55 C., 4 hr) | log kill of treated bacterial populations relative to an untreated control [3, 5] | log kill of treated bacterial populations relative to an untreated control ([3]; 70 C., 4 hr) | log kill of treated bacterial populations relative to an untreated control [3, 6] | activity compared with glutaraldehyde (in words) ([3]; at each temperature tested (37, 55, 70 C.)) | minimum dose needed to achieve 3-log reduction in bacteria levels ([2]; 24 hours incubation)
CN1CCC(c2ccccc2)OC1CCCC1OC(c2ccccc2)CCN1C (centres unmarked) [Compound 1, 1,3-bis(3-methyl-6-phenyl-1,3-oxazinan-2-yl)propane] | significant biocidal activity | 59 ppm | 26 ppm | 40 ppm | 133 ppm | 133 ppm | some activity | >3 | >4 | >3 | >3 | >4 | >4 | equivalent activity to glutaraldehyde | –
CN1CCOC1CCCC1OCCN1C (centres unmarked) [Compound 4, 1,3-bis(3-methyloxazolidin-2-yl)propane] | limited activity | – | 200 ppm | 200 ppm | 200 ppm | 133 ppm | some activity | – | – | – | – | – | – | – | –
O=CCCCC=O [glut, Glutaraldehyde, reference compound] | – | 26 ppm | 26 ppm | 26 ppm | 89 ppm | 18 ppm | – | >3 | >4 | >3 | >3 | >4 | >4 | – | <12 ppm

Source: patent publication US9550740B2, “Antimicrobial compounds” (Dow Global Technologies LLC, priority 2012, dated 2017)
